US20240016807A1, “COMBINATION THERAPY FOR THE TREATMENT OF A LIVER DISEASE” (INVENTIVA, priority 2020, published 2024)

How the values were obtained:
Format in all cases: in vivo, C57BL6/J mice
[1] = system: HFCC+CDX diet model (liver histology); assay: Liver histology (steatosis, inflammation, fibrosis scoring, % Sirius Red) in HFCC/CDX diet mouse model; conditions: for histological fibrosis score: compared to the vehicle group (score of 1); for histological steatosis score / histological inflammation score: 3 being the maximum; for histological steatosis score: all vehicle animals scored 3; for histological inflammation score: all vehicle mice scored 3; for surface of fibrosis (collagen deposition within the liver): vehicle 0.14%; for total scoring including steatosis, inflammation and fibrosis scoring: vehicle 6.9
Procedure: (§1) It has been reported (Duparc T et al., Am J Physiol Gasterointest Liver Physiol, 2019, Vol. 317, n° 4, pages G508-G517) that mice fed with a high fat/high cholesterol/high cholic acid diet with 2% 2-hydroxypropyl beta-cyclodextrin in drinking water for 3 weeks rapidly develops liver complications such as steatosis, inflammation and fibrosis with concomitant increase in plasma ALT/AST levels. The benefit of a combination therapy comprising lanifibranor and firsocostat was assessed in this model. C57BL6/J mice were fed for 3 weeks with a 60% high fat/1.25% cholesterol/0.5% cholic acid diet with 2% 2-hydroxypropyl beta-cyclodextrin in drinking water (HFCC/CDX diet). After 1 week of diet, blood was collected (˜150 μL/ethylenediaminetetraacetic acid (EDTA)) in non-fasting conditions and plasma ALT and AST levels were measured. Mice were then randomized into 4 homogenous treatment groups (n=10 mice per group) according to their 1) ALT levels, 2) AST levels and 3) body weight. The four groups received then their treatment for the remaining 2 weeks on top of the HFCC/CDX diet as follows: • Group 1: vehicle 1+vehicle 2; • Group 2: lanifibranor+vehicle 2; • Group 3: vehicle 1+firsocostat; • Group 4: lanifibranor+firsocostat. All treatments were given QD per os. Vehicle 1 stands for lanifibranor's vehicle (i.e. methyl cellulose/poloxamer), vehicle 2 stands for firsocostat's vehicle (i.e. Tween®80/methylcellulose). Lanifibranor was given at 10 mg/kg for 2 weeks and firsocostat was given at 30 mg/kg for the first 6 days and then at 15 mg/kg for the last 8 days: due to the high loss of weight observed in the combination group, the dose of firsocostat was adapted to limit toxicity. At the end of the treatment period all the mice were weighted and 4-hour fasted prior to blood collection (maximal volume/EDTA). Plasma was isolated and stored at −80° C. Plasma leftover was used for evaluation of plasmatic triglycerides, cholesterols and free fatty acid. After blood collection, mice were sacrificed by cervical dislocation under isoflurane anaesthesia and exsanguinated with sterile saline. The liver was collected and weighted then liver samples were dissected for histology analysis (H&E, Sirius Red staining, % Sirius Red labelling and NAFLD Activity Score (NAS)), liver lipids assay, hepatic gene expression of IL-1b, MCP-1 for inflammation, Col1 alpha1 and TGF-beta for fibrosis were analysed by qPCR.

[2] = system: HFCC+CDX diet model (liver lipids); assay: Liver lipids assay in HFCC/CDX diet mouse model; conditions: 2 weeks treatment QD per os; lanifibranor 10 mg/kg, firsocostat 30 then 15 mg/kg
Procedure: as §1

[3] = system: hepatic gene expression of IL-1b, MCP-1, Col1 alpha1 and TGF-beta; assay: Hepatic gene expression by qPCR (inflammation and fibrosis genes) in HFCC/CDX diet mouse model; conditions: liver, vs vehicle, 2 weeks treatment
Procedure: as §1

[4] = Body weight follow-up in HFCC/CDX diet mouse model; conditions: for body weight: during treatment, lanifibranor 10 mg/kg QD per os, firsocostat 30 mg/kg QD per os in first week
Procedure: It has been reported (Duparc T et al., Am J Physiol Gasterointest Liver Physiol, 2019, Vol. 317, n° 4, pages G508-G517) that mice fed with a high fat/high cholesterol/high cholic acid diet with 2% 2-hydroxypropyl beta-cyclodextrin in drinking water for 3 weeks rapidly develops liver complications such as steatosis, inflammation and fibrosis with concomitant increase in plasma ALT/AST levels. The benefit of a combination therapy comprising lanifibranor and firsocostat was assessed in this model.
(§2) C57BL6/J mice were fed for 3 weeks with a 60% high fat/1.25% cholesterol/0.5% cholic acid diet with 2% 2-hydroxypropyl beta-cyclodextrin in drinking water (HFCC/CDX diet). After 1 week of diet, blood was collected (˜150 μL/ethylenediaminetetraacetic acid (EDTA)) in non-fasting conditions and plasma ALT and AST levels were measured. Mice were then randomized into 4 homogenous treatment groups (n=10 mice per group) according to their 1) ALT levels, 2) AST levels and 3) body weight. The four groups received then their treatment for the remaining 2 weeks on top of the HFCC/CDX diet as follows: • Group 1: vehicle 1+vehicle 2; • Group 2: lanifibranor+vehicle 2; • Group 3: vehicle 1+firsocostat; • Group 4: lanifibranor+firsocostat.
All treatments were given QD per os. Vehicle 1 stands for lanifibranor's vehicle (i.e. methyl cellulose/poloxamer), vehicle 2 stands for firsocostat's vehicle (i.e.
Tween®80/methylcellulose). Lanifibranor was given at 10 mg/kg for 2 weeks and firsocostat was given at 30 mg/kg for the first 6 days and then at 15 mg/kg for the last 8 days: due to the high loss of weight observed in the combination group, the dose of firsocostat was adapted to limit toxicity. At the end of the treatment period all the mice were weighted and 4-hour fasted prior to blood collection (maximal volume/EDTA). Plasma was isolated and stored at −80° C. Plasma leftover was used for evaluation of plasmatic triglycerides, cholesterols and free fatty acid. After blood collection, mice were sacrificed by cervical dislocation under isoflurane anaesthesia and exsanguinated with sterile saline.

[5] = system: epididymal white adipose tissue (EWAT); assay: Epididymal white adipose tissue weight in HFCC/CDX diet mouse model; conditions: 2 weeks treatment QD per os; lanifibranor 10 mg/kg, firsocostat 30 then 15 mg/kg
Procedure: as §2, with “It has been reported (Duparc T et al., Am J Physiol Gasterointest Liver Physiol, 2019, Vol. 317, n° 4, pages G508-G517) that mice fed with a high fat/high cholesterol/high cholic acid diet with 2% 2-hydroxypropyl beta-cyclodextrin in drinking water for 3 weeks rapidly develops liver complications such as steatosis, inflammation and fibrosis with concomitant increase in plasma ALT/AST levels. The benefit of a combination therapy comprising lanifibranor and firsocostat was assessed in this model. C57BL6/J” for “C57BL6/J”, “lanifibranor+firsocostat. All treatments were given QD per os. […]” for “lanifibranor+firsocostat.”

SMILES	histological fibrosis score [1]	histological steatosis score [1]	histological inflammation score [1]	surface of fibrosis (collagen deposition within the liver) [1] [%]	total scoring including steatosis, inflammation and fibrosis scoring [1]	hepatic fatty acids levels, change vs vehicle [2]	hepatic total cholesterol, change vs vehicle [2] [%]	hepatic triglycerides, change vs vehicle [2] [%]	hepatic IL-1beta expression [3]	hepatic MCP-1 expression [3]	hepatic TGF-beta1 expression [3]	hepatic collagen 1 alpha 1 expression [3]	body weight after firsocostat dose reduction ([4]; after firsocostat dose reduced from 30 mg/kg to 15 mg/kg)	body weight [4]	epididymal white adipose tissue (EWAT) weight [5]
COc1ccccc1[C@H](Cn1c(=O)n(C(C)(C)C(=O)O)c(=O)c2c(C)c(-c3ncco3)sc21)OC1CCOCC1 [firsocostat]	no effect	score of 2 in 7 animals but had no effect in 2 animals	1 animals had a score of 3, 7 animals had a score of 2 and 1 animal had a score of 1	0.10	5.1	−16%	−9	−14	decreased both IL-1beta and MCP-1 expressions but only the decrease in MCP-1 expression reached significance	decreased both IL-1beta and MCP-1 expressions but only the decrease in MCP-1 expression reached significance	statistically decreased	statistically decreased	normalized their body weight	induced a body weight loss in the first week of treatment	neither lanifibranor alone, firsocostat alone nor the combination of lanifibranor and firsocostat had an effect
O=C(O)CCCc1cc2cc(Cl)ccc2n1S(=O)(=O)c1ccc2ncsc2c1 [lanifibranor, 5-Chloro-1-[(6-benzothiazolyl)sulfonyl]-1H-indole-2-butanoic acid]	no effect	score of 2 for 8 animals and of 1 for 2 animals	2 animals had a score of 3, 6 animals had a score of 2 and 2 animals had a score of 1	0.08	4.7	no effect	−18	−7	statistically decreased	statistically decreased	statistically decreased	statistically decreased		minor body weight loss that was not significant	neither lanifibranor alone, firsocostat alone nor the combination of lanifibranor and firsocostat had an effect
